pIC50: −log10 of the molar value.
What was measured:
whole human blood = assay: Anti-CD3/anti-CD28-induced IL-2 Secretion in Whole Human Blood; type: cell-based; details: 48 h, IL-2 by ELISA, threshold 5 μM
Method: Anti-CD3/anti-CD28-induced IL-2Secretion in Whole Human Blood
The purpose of this assay is to test the potency of T cell receptor (TCR; CD3) and CD28 signaling pathway inhibitors in whole human blood. Anti-CD3 antibody (10 ug/mL; R&D Systems) is precoated on the wells of 96-well plates. Compounds are added in T-cell dilution media (Iscoves modified DMEM), supplemented with 0.1% human serum albumin, 5 uM Beta-mercaptoethanol, and 1×Pen/Strep/Glu. Compounds are tested in triplicate. 100 μL of whole human blood (collected in heparinized tubes) is added to each well and the plates are incubated for 30 minutes at 37° C., 5% CO2. Anti-CD28 antibody (2 ug/mL; R&D Systems) is diluted in T-cell dilution media and is added to the wells. The mixture is incubated for 48 h at 37° C., 5% CO2. The cells are then pelleted, and the supernatant collected and IL-2 production determined by ELISA (R&D Systems).

human T cells = assay: Anti-CD3/anti-CD28-induced T cell IL-2 Secretion and Proliferation Assay; type: cell-based; details: list printed after the T cell IL-2 secretion/proliferation method, threshold 500 μM

SMILES	pIC50 (whole human blood)	pIC50 (human T cells)
CCN1CC2CC1CN2c1nc(-c2ccnc(N[C@@H](C)c3ccccc3)c2)nc2ccccc12 (stereo partly drawn) [(S)-{4-[4-(5-Ethyl-(1S,4S)-2,5-diaza-bicyclo[2.2.1]hept-2-yl)-quinazolin-2-yl]-pyridin-2-yl}-(1-phenyl-ethyl)-amine]	> 5.30	–
CC(C)N1CC2CC1CN2c1nc(-c2ccnc(N[C@@H](C)c3ccccc3)c2)nc2ccccc12 (stereo partly drawn) [(S)-{4-[4-(5-Isopropyl-(1S,4S)-2,5-diaza-bicyclo[2.2.1]hept-2-yl)-quinazolin-2-yl]-pyridin-2-yl}-(1-phenyl-ethyl)-amine]	–	> 3.30
C[C@H](Nc1cc(-c2nc(N3CC4CC3CN4C)c3ccccc3n2)ccn1)c1ccccc1 (stereo partly drawn) [(S)-{4-[4-(5-Methyl-(1S,4S)-2,5-diaza-bicyclo[2.2.1]hept-2-yl)-quinazolin-2-yl]-pyridin-2-yl}-(1-phenyl-ethyl)-amine]	–	> 3.30
C[C@H](Nc1cc(-c2cc3nccn3c(N3C[C@@H]4C[C@H]3CN4)n2)ccn1)c1ccccc1 [Example 3, (S)-{4-[5-((1S,4S)-2,5-Diaza-bicyclo[2.2.1]hept-2-yl)-imidazo[1,2-c]pyrimidin-7-yl]-pyridin-2-yl}-(1-phenyl-ethyl)-amine]	> 5.30	–
CC(C)N1C[C@@H]2C[C@H]1CN2c1nc(-c2ccnc(N[C@@H](C)c3ccccc3)c2)cc2nccn12 [Example 4, (S)-{4-[5-(5-Isopropyl-(1S,4S)-2,5-diaza-bicyclo[2.2.1]hept-2-yl)-imidazo[1,2-c]pyrimidin-7-yl]-pyridin-2-yl}-(1-phenyl-ethyl)-amine]	> 5.30	> 3.30
C[C@H](Nc1cc(-n2nc(N3C[C@@H]4C[C@H]3CN4)c3ccccc32)ccn1)c1ccccc1F [Example 24, (S)-{4-[3-((1S,4S)-2,5-Diaza-bicyclo[2.2.1]hept-2-yl)-indazol-1-yl]-pyridin-2-yl}-[1-(2-fluoro-phenyl)-ethyl]-amine]	> 5.30	–
C[C@H](Nc1cc(-n2nc(N3C[C@@H]4C[C@H]3CN4)c3ccccc32)ccn1)c1ccccc1 [Example 43, (S)-{4-[3-((1s, 4S)-2,5-Diaza-bicyclo[2.2.1]hept-2-yl)-indazol-1-yl]-pyridin-2-yl}-(1-phenyl-ethyl)-amine]	–	> 3.30
C[C@H](Nc1cc(-c2nc(N3C[C@@H]4C[C@H]3CN4)c3ccccc3n2)ccn1)c1ccccc1 [Example 49, {4-[4-((1S,4S)-2,5-Diaza-bicyclo[2.2.1]hept-2-yl)-quinazolin-2-yl]-pyridin-2-yl}-(S)-(1-phenyl-ethyl)-amine]	> 5.30	> 3.30
C[C@H](Nc1cc(-c2cc(N3C[C@@H]4C[C@H]3CN4)c3ccccc3n2)ccn1)c1ccccc1 [Example 51, (S)-{4-[4-((1S,4S)-2,5-Diaza-bicyclo[2.2.1]hept-2-yl)-quinolin-2-yl]-pyridin-2-yl}-(1-phenyl-ethyl)-amine]	–	> 3.30
Fc1ccccc1CNc1cc(-c2cc3nccn3c(N3C[C@@H]4C[C@H]3CN4)n2)ccn1 [Example 57, {4-[5-((1S,4S)-2,5-Diaza-bicyclo[2.2.1]hept-2-yl)-imidazo[1,2-c]pyrimidin-7-yl]-pyridin-2-yl}-(2-fluoro-benzyl)-amine]	> 5.30	> 3.30
CCN1C[C@@H]2C[C@H]1CN2c1nc(-c2ccnc(N[C@@H](C)c3ccccc3)c2)nc2ccccc12 [Example 64, (S)-{4-[4-(5-Ethyl-(1S,4S)-2,5-diaza-bicyclo[2.2.1]hept-2-yl)-quinazolin-2-yl]-pyridin-2-yl}-(1-phenyl-ethyl)-amine]	–	> 3.30
CC(C)N1C[C@@H]2C[C@H]1CN2c1nccc(-c2ccnc(N[C@@H](C)c3ccccc3)c2)n1 [Example 66, (S)-{4-[2-(5-Isopropyl-(1S,4S)-2,5-diaza-bicyclo[2.2.1]hept-2-yl)-pyrimidin-4-yl]-pyridin-2-yl}-(1-phenyl-ethyl)-amine]	> 5.30	–

Further lines, with some results ahead:

pIC50 (whole human blood)	SMILES	pIC50 (human T cells)
> 5.30	Fc1ccc2c(N3CC4CC3CN4)nn(-c3ccnc(NCc4ccccc4)c3)c2c1 [Benzyl-{4-[3-((1S,4S)-2,5-diaza-bicyclo[2.2.1]hept-2-yl)-6-fluoro-indazol-1-yl]-pyridin-2-yl}-amine]	> 3.30
> 5.30	CCN1C[C@@H]2C[C@H]1CN2c1nc(-c2ccnc(N[C@@H](C)c3ccccc3)c2)cc2nccn12 [Example 5, (S)-{4-[5-(5-Ethyl-(1S,4S)-2,5-diaza-bicyclo[2.2.1]hept-2-yl)-imidazo[1,2-c]pyrimidin-7-yl]-pyridin-2-yl}-(1-phenyl-ethyl)-amine]	–
> 5.30	CC(C)N1C[C@@H]2C[C@H]1CN2c1nn(-c2ccnc(N[C@@H](C)c3ccccc3)c2)c2ccccc12 [Example 44, (S)-{4-[3-(5-Isopropyl-(1S,4S)-2,5-diaza-bicyclo[2.2.1]hept-2-yl)-indazol-1-yl]-pyridin-2-yl}-(1-phenyl-ethyl)-amine]	> 3.30
> 5.30	CC(C)N1C[C@@H]2C[C@H]1CN2c1cc(-c2ccnc(N[C@@H](C)c3ccccc3)c2)nc2ccccc12 [Example 52, (S)-{4-[4-(5-Isopropyl-(1S,4S)-2,5-diaza-bicyclo[2.2.1]hept-2-yl)-quinolin-2-yl]-pyridin-2-yl}-(1-phenyl-ethyl)-amine]	> 3.30
> 5.30	CC(C)N1C[C@@H]2C[C@H]1CN2c1nc(-c2ccnc(N[C@@H](C)c3ccccc3)c2)nc2ccccc12 [Example 65, (S)-{4-[4-(5-Isopropyl-(1S,4S)-2,5-diaza-bicyclo[2.2.1]hept-2-yl)-quinazolin-2-yl]-pyridin-2-yl}-(1-phenyl-ethyl)-amine]	–
> 5.30	c1ccc(CNc2cc(-n3nc(N4C[C@@H]5C[C@H]4CN5)c4ccccc43)ccn2)cc1 [Example 69]	> 3.30

Reference: patent publication US7582631B2, “Substituted heterocyclic compounds and methods of use” (Amgen Inc., priority 2004, dated 2009)
